Experimental data from patent publication US20240109864A1, “SUBSTITUTED PYRAZOLYL PIPERIDINE CARBOXYLIC ACIDS” (BAYER AKTIENGESELLSCHAFT, priority 2020, published 2024).
Where a name gives a salt, the structure may show the parent alone.

Target: T1, recombinant guanylate cyclase reporter cell line (Rattus norvegicus, UniProt P20595)
T1 construct: expressed in transfected cells
T1 sequence (P20595 1-619): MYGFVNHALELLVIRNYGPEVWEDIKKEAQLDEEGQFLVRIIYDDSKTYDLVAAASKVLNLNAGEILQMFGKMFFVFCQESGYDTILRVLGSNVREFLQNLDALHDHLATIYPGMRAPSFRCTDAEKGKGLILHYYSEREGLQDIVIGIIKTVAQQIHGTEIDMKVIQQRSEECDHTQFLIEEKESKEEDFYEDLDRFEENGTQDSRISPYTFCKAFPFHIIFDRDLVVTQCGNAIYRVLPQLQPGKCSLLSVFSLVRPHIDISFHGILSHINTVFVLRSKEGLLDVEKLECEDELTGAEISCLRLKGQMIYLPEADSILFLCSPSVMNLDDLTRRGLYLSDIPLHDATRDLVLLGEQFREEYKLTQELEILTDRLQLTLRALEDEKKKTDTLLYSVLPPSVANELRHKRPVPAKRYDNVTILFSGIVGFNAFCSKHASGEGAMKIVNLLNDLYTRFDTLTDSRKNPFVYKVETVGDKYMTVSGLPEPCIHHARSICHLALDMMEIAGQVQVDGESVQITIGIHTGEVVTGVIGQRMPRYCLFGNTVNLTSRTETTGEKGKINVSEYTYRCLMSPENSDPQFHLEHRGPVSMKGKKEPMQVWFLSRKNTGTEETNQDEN
T1 sequence (P19686 1-690 partner): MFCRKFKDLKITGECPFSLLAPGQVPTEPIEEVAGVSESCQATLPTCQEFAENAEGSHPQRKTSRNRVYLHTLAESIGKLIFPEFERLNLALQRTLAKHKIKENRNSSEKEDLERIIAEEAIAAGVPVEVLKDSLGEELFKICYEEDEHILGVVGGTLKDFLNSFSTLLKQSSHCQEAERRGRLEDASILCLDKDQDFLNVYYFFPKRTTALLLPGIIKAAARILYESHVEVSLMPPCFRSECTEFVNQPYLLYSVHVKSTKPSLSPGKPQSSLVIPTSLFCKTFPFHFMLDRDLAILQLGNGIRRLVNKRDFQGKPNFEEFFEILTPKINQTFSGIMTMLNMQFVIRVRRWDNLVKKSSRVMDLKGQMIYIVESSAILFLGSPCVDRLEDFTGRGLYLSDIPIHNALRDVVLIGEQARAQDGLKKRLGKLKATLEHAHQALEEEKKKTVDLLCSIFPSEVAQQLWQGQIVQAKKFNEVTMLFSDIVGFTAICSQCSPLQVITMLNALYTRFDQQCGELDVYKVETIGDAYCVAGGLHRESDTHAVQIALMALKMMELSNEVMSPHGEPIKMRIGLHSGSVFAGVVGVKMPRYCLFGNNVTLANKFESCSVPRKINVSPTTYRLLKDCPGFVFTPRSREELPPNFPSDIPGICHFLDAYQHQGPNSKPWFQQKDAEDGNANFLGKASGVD
Assay: Effect on a recombinant guanylate cyclase reporter cell line
Format: cell-based
Details: in some cases mean values from individual determinations; for MEC: MEC = minimum effective concentration; for EC50: half maximal effective concentration
Procedure: The cellular activity of the compounds according to the invention was determined using a recombinant guanylate cyclase reporter cell line, as described in F. Wunder et al., Anal. Biochem. 339, 104-112 (2005).

SMILES	MEC	EC50	MEC (hydrochloride)
O=C(O)c1cnn(C2CCCN(c3cc(Cl)ccc3-c3ccc(N4CCN(C(=O)C5(F)CC5)CC4)cc3)C2)c1C(F)(F)F (single isomer, unassigned) [Example 43, 1-[1-[5-Chloro-2-[4-[4-(1-fluorocyclopropanecarbonyl)piperazin-1-yl]phenyl]phenyl]-3-piperidyl]-5-(trifluoromethyl)pyrazole-4-carboxylic acid]	1.0 nM	15.1 nM	–
CC(C)(F)C(=O)N1CCN(c2ccc(-c3ccc(Cl)cc3N3CCCC(n4ncc(C(=O)O)c4C(F)(F)F)C3)cc2)CC1 (single isomer, unassigned) [Example 39, 1-[1-[5-Chloro-2-[4-[4-(2-fluoro-2-methyl-propanoyl)piperazin-1-yl]phenyl]phenyl]-3-piperidyl]-5-(trifluoromethyl)pyrazole-4-carboxylic acid]	10.0 nM	59 nM	–
O=C(O)c1cnn(C2CCCN(c3cc(Cl)ccc3-c3ccc(C4CCN(C(=O)C5CC5)CC4)cc3)C2)c1C(F)(F)F (single isomer, unassigned) [Example 85, 1-[1-[5-Chloro-2-[4-[1-(cyclopropanecarbonyl)-4-piperidyl]phenyl]phenyl]-3-piperidyl]-5-(trifluoromethyl)pyrazole-4-carboxylic acid hydrochloride]	–	1.1 nM	<0.3 nM
O=C(O)c1cnn(C2CCCN(c3cc(Cl)ccc3-c3ccc(N4CCN(CC5CC(F)(F)C5)CC4)cc3)C2)c1C(F)(F)F (single isomer, unassigned) [Example 21, 1-[1-[5-Chloro-2-[4-[4-[(3,3-difluorocyclobutyl)methyl]piperazin-1-yl]phenyl]phenyl]-3-piperidyl]-5-(trifluoromethyl)pyrazole-4-carboxylic acid hydrochloride]	–	27 nM	3.0 nM
O=C(O)c1cnn(C2CCCN(c3cc(Cl)ccc3-c3ccc(N4CCN(CC5CC5)CC4)cc3F)C2)c1C(F)(F)F (single isomer, unassigned) [Example 69, 1-[1-[5-Chloro-2-[4-[4-(cyclopropylmethyl)piperazin-1-yl]-2-fluoro-phenyl]phenyl]-3-piperidyl]-5-(trifluoromethyl)pyrazole-4-carboxylic acid hydrochloride]	3.0 nM	13.8 nM	–
CC(=O)N1CCN(c2ccc(-c3ccc(Cl)cc3N3CCCC(n4ncc(C(=O)O)c4C(F)(F)F)C3)cc2)CC1 (single isomer, unassigned) [Example 36, 1-[1-[2-[4-(4-Acetylpiperazin-1-yl)phenyl]-5-chloro-phenyl]-3-piperidyl]-5-(trifluoromethyl)pyrazole-4-carboxylic acid]	10.0 nM	35.5 nM	–
O=C(O)c1cnn(C2CCCN(c3cc(Cl)ccc3-c3ccc(N4CCN(C(=O)C5CC56CC6)CC4)cc3)C2)c1C(F)(F)F (single isomer, unassigned) [Example 53, 1-[1-{4-chloro-4′-[4-(spiro[2.2]pentane-1-carbonyl)piperazin-1-yl][1,1′-biphenyl]-2-yl}piperidin-3-yl]-5-(trifluoromethyl)-1H-pyrazole-4-carboxylic acid]	10.0 nM	22 nM	–
O=C(O)c1cnn(C2CCCN(c3cc(Cl)ccc3-c3ccc(N4CCN(CC(F)F)CC4)cc3)C2)c1C(F)(F)F (single isomer, unassigned) [Example 12, 1-[1-[5-Chloro-2-[4-[4-(2,2-difluoroethyl)piperazin-1-yl]phenyl]phenyl]-3-piperidyl]-5-(trifluoromethyl)pyrazole-4-carboxylic acid hydrochloride]	–	4.6 nM	1.0 nM
CC(C)(F)CN1CCN(c2ccc(-c3ccc(Cl)cc3N3CCCC(n4ncc(C(=O)O)c4C(F)(F)F)C3)cc2)CC1.Cl (single isomer, unassigned) [Example 10, 1-[1-[5-Chloro-2-[4-[4-(2-fluoro-2-methyl-propyl)piperazin-1-yl]phenyl]phenyl]-3-piperidyl]-5-(trifluoromethyl)pyrazole-4-carboxylic acid hydrochloride]	3.0 nM	24.5 nM	–
COCCOC(=O)N1CCN(c2ccc(-c3ccc(Cl)cc3N3CCCC(n4ncc(C(=O)O)c4C(F)(F)F)C3)cc2)CC1 (single isomer, unassigned) [Example 62, 1-[1-[5-Chloro-2-[4-[4-(2-methoxyethoxycarbonyl)piperazin-1-yl]phenyl]phenyl]-3-piperidyl]-5-(trifluoromethyl)pyrazole-4-carboxylic acid]	10.0 nM	57.5 nM	–
O=C(O)c1cnn(C2CCCN(c3cc(Cl)ccc3-c3ccc(N4CCN(CCC(F)F)CC4)cc3)C2)c1C(F)(F)F (single isomer, unassigned) [Example 14, 1-[1-[5-Chloro-2-[4-[4-(3,3-difluoropropyl)piperazin-1-yl]phenyl]phenyl]-3-piperidyl]-5-(trifluoromethyl)pyrazole-4-carboxylic acid hydrochloride]	0.3 nM	3.1 nM	–
CN1CCN(c2ccc(-c3ccc(Cl)cc3N3CCCC(n4ncc(C(=O)O)c4C(F)(F)F)C3)cc2)CC1 (single isomer, unassigned) [Example 1, 1-[1-[5-Chloro-2-[4-(4-methylpiperazin-1-yl)phenyl]phenyl]-3-piperidyl]-5-(trifluoromethyl)pyrazole-4-carboxylic acid]	10.0 nM	47.5 nM	–

More lines, now with the values ahead:

MEC	EC50	MEC (hydrochloride)	SMILES
3.0 nM	18 nM	–	CC(C)OC(=O)N1CCN(c2ccc(-c3ccc(Cl)cc3N3CCCC(n4ncc(C(=O)O)c4C(F)(F)F)C3)cc2)CC1 (single isomer, unassigned) [Example 56, 1-[1-[5-Chloro-2-[4-(4-isopropoxycarbonylpiperazin-1-yl)phenyl]phenyl]-3-piperidyl]-5-(trifluoromethyl)pyrazole-4-carboxylic acid]
3.0 nM	16 nM	–	CCCN1CCN(c2ccc(-c3ccc(Cl)cc3N3CCCC(n4ncc(C(=O)O)c4C(F)(F)F)C3)cc2)CC1 (single isomer, unassigned) [Example 4, 1-[1-[5-Chloro-2-[4-(4-propylpiperazin-1-yl)phenyl]phenyl]-3-piperidyl]-5-(trifluoromethyl)pyrazole-4-carboxylic acid hydrochloride]
10.0 nM	40.5 nM	–	O=C(O)c1cnn(C2CCCN(c3cc(Cl)ccc3-c3ccc(N4CCN(CC5(C(F)(F)F)CC5)CC4)cc3)C2)c1C(F)(F)F (single isomer, unassigned) [Example 34, 1-[1-[5-Chloro-2-[4-[4-[[1-(trifluoromethyl)cyclopropyl]methyl]piperazin-1-yl]phenyl]phenyl]-3-piperidyl]-5-(trifluoromethyl)pyrazole-4-carboxylic acid hydrochloride]
3.0 nM	10.6 nM	–	O=C(O)c1cnn(C2CCCN(c3cc(Cl)ccc3-c3ccc(N4CCN(C(=O)[C@H]5CC5(F)F)CC4)cc3)C2)c1C(F)(F)F (single isomer, unassigned) [Example 48, 1-[1-[5-Chloro-2-[4-[4-[2,2-difluorocyclopropanecarbonyl]piperazin-1-yl]phenyl]phenyl]-3-piperidyl]-5-(trifluoromethyl)pyrazole-4-carboxylic acid]
3.0 nM	14.5 nM	–	O=C(O)c1cnn(C2CCCN(c3cc(Cl)ccc3-c3ccc(N4CCN(C(=O)[C@@H]5C[C@@H]5F)CC4)cc3)C2)c1C(F)(F)F (single isomer, unassigned) [Example 46]
3.0 nM	12.7 nM	–	O=C(O)c1cnn(C2CCCN(c3cc(Cl)ccc3-c3ccc(N4CCN(CC56CC(F)(C5)C6)CC4)cc3)C2)c1C(F)(F)F (single isomer, unassigned) [Example 24, 1-[1-[5-Chloro-2-[4-[4-[(3-fluoro-1-bicyclo[1.1.1]pentanyl)methyl]piperazin-1-yl]phenyl]phenyl]-3-piperidyl]-5-(trifluoromethyl)pyrazole-4-carboxylic acid hydrochloride]
